Assay results taken from US8343983B2, “Substituted pyrazolo-pyrimidine compounds” (ArQule, Inc., priority 2009, dated 2013).
Where two headings read alike, the source gives them in different places.

Assays:
cancer cells = test: MTS assay: inhibition of cell growth (formazan absorbance at 492 nm after 72 hours with test compound); assay type: cell-based; settings: inhibition class
Method in brief: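 DMEM with 1% FBS; cells seeded at 3000/well and grown 18 h at 37 °C, then exposed to compound for 72 h and to MTS/PMS for 4 h. IC50 is the concentration giving a 50% absorbance drop; grades are % inhibition bands.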

[1] = Homo sapiens, DLD-1 cells, read-out: DLD-1, MTS 72 hours at 10 uM
[2] = Homo sapiens, KATO III cells, read-out: KATO III, MTS 72 hours at 10 uM
[3] = Homo sapiens, MDA-MB-231 cells, read-out: MDA-MB-231, MTS 72 hours at 10 uM
[4] = Homo sapiens, NCI-H1299 cells, read-out: NCI-H1299, MTS 72 hours at 10 uM
[5] = Homo sapiens, PC-3 cells, read-out: PC-3, MTS 72 hours at 10 uM
[6] = PACA-2 cells, read-out: PACA-2, MTS 72 hours at 10 uM

melting point [°C]	Compound	inhibition at 10 µM (cancer cells; [1]) [%]	inhibition at 10 µM (cancer cells; [2]) [%]	inhibition at 10 µM (cancer cells; [3]) [%]	inhibition at 10 µM (cancer cells; [4]) [%]	inhibition at 10 µM (cancer cells; [5]) [%]	inhibition at 10 µM (cancer cells; [6]) [%]
118 to 120	COc1ccc(CN2CCc3nn(Cc4ccccc4)c4nc(N5CCOCC5)nc2c34)cc1 [Compound 131, 4-(1-benzyl-5-(4-methoxybenzyl)-1,3,4,5-tetrahydro-1,2,5,6,8-pentaazaacenaphthylen-7-yl)morpholine]						
	O=C(C1CN(Cc2ccccc2)c2nc(NCc3ccccc3)nc3[nH]nc1c23)N1CCOCC1 (stereo not shown) [Compound 237, N,6-dibenzyl-8-(morpholin-4-ylcarbonyl)-2,6,7,8-tetrahydro-1,2,3,5,6-pentaazaacenaphthylen-4-amine]	< 50	< 50	< 50	< 50	< 50	< 50
	O=C(NCc1ccc(Cl)cc1)C1CN(Cc2ccccc2)c2nc(NCc3ccccc3)nc3[nH]nc1c23 (stereo not shown) [Compound 238, 6-benzyl-4-(benzylamino)-N-(4-chlorobenzyl)-2,6,7,8-tetrahydro-1,2,3,5,6-pentaazaacenaphthylene-8-carboxamide]	> 79	> 79	> 79	> 79	> 79	50 to 79
	CN(C(=O)C1CN(Cc2ccccc2)c2nc(NCc3ccccc3)nc3[nH]nc1c23)C1CCCCC1 (stereo not shown) [Compound 239, 6-benzyl-4-(benzylamino)-N-cyclohexyl-N-methyl-2,6,7,8-tetrahydro-1,2,3,5,6-pentaazaacenaphthylene-8-carboxamide]	< 50	< 50	< 50	< 50	< 50	< 50
	O=C(NCC1CCCCC1)C1CN(Cc2ccccc2)c2nc(NCc3ccccc3)nc3[nH]nc1c23 (stereo not shown) [Compound 240, 6-benzyl-4-(benzylamino)-N-(cyclohexylmethyl)-2,6,7,8-tetrahydro-1,2,3,5,6-pentaazaacenaphthylene-8-carboxamide]	> 79	> 79	< 50	> 79	> 79	< 50
	O=C(NCCOc1ccccc1)C1CN(Cc2ccccc2)c2nc(NCc3ccccc3)nc3[nH]nc1c23 (stereo not shown) [Compound 241, 6-benzyl-4-(benzylmino)-N-(2-phenoxyethyl)-2,6,7,8-tetrahydro-1,2,3,5,6-pentaazaacenaphthylene-8-carboxamide]	< 50	< 50	< 50	< 50	< 50	< 50
	COc1ccc(CN2CCCc3n[nH]c4nc(N5CCOCC5)nc2c34)cc1 [Compound 242, 6-(4-methoxybenzyl)-4-morpholin-4-yl-6,7,8,9-tetrahydro-2H-1,2,3,5,6-pentaazabenzo[cd]azulene]	> 79	< 50	< 50	< 50	< 50	50 to 79
	COc1ccc(CN2CCCc3n[nH]c4nc(N5CCCC5)nc2c34)cc1 [Compound 244, 6-(4-methoxybenzyl)-4-pyrrolidin-1-yl-6,7,8,9-tetrahydro-2H-1,2,3,5,6-pentaazabenzo[cd]azulene]	< 50	< 50	< 50	< 50	< 50	< 50
	COc1ccc(CN2CCCc3n[nH]c4nc(N5CCCCC5)nc2c34)cc1 [Compound 245, 6-(4-methoxybenzyl)-4-piperidin-1-yl-6,7,8,9-tetrahydro-2H-1,2,3,5,6-pentaazabenzo[cd]azulene]	< 50	< 50	< 50	< 50	< 50	< 50
	COc1ccc(CN2CCCc3n[nH]c4nc(NC5CCN(C)CC5)nc2c34)cc1 [Compound 246, 6-(4-methoxybenzyl)-N-(1-methylpiperidin-4-yl)-6,7,8,9-tetrahydro-2H-1,2,3,5,6-pentaazabenzo[cd]azulen-4-amine]	< 50	< 50	< 50	< 50	< 50	< 50
	COc1ccc(CN2CCCc3n[nH]c4nc(NCc5ccccc5)nc2c34)cc1 [Compound 247, N-benzyl-6-(4-methoxybenzyl)-6,7,8,9-tetrahydro-2H-1,2,3,5,6-pentaazabenzo[cd]azulen-4-amine]	< 50	< 50	< 50	< 50	< 50	< 50
	COc1ccc(CN2CCCc3n[nH]c4nc(NCCc5ccc(F)cc5)nc2c34)cc1 [Compound 248, N-[2-(4-fluorophenyl)ethyl]-6-(4-methoxybenzyl)-6,7,8,9-tetrahydro-2H-1,2,3,5,6-pentaazabenzo[cd]azulen-4-amine]	> 79	> 79	> 79	> 79	> 79	> 79
	COc1ccc(CN2CCCc3n[nH]c4nc(NCCN5CCOCC5)nc2c34)cc1 [Compound 249, 6-(4-methoxybenzyl)-N-(2-morpholin-4-ylethyl)-6,7,8,9-tetrahydro-2H-1,2,3,5,6-pentaazabenzo[cd]azulen-4-amine]	< 50	< 50	< 50	< 50	< 50	< 50
	COc1ccc(CN2CCCc3n[nH]c4nc(NCc5ccccc5Cl)nc2c34)cc1 [Compound 250, N-(2-chlorobenzyl)-6-(4-methoxybenzyl)-6,7,8,9-tetrahydro-2H-1,2,3,5,6-pentaazabenzo[cd]azulen-4-amine]	50 to 79	> 79	50 to 79	< 50	> 79	> 79
	COc1ccc(CN2CCCc3n[nH]c4nc(NCc5cccnc5)nc2c34)cc1 [Compound 251, 6-(4-methoxybenzyl)-N-(pyridin-3-ylmethyl)-6,7,8,9-tetrahydro-2H-1,2,3,5,6-pentaazabenzo[cd]azulen-4-amine]	> 79	> 79	> 79	> 79	> 79	> 79
	COc1ccc(CN2CCCc3n[nH]c4nc(NCCc5c[nH]c6ccc(Cl)cc56)nc2c34)cc1 [Compound 252, N-[2-(5-chloro-1H-indol-3-yl)ethyl]-6-(4-methoxybenzyl)-6,7,8,9-tetrahydro-2H-1,2,3,5,6-pentaazabenzo[cd]azulen-4-amine]	50 to 79	< 50	< 50	< 50	< 50	< 50
	COc1ccc(CN2CCCc3n[nH]c4nc(NCc5ccc(Cl)cc5)nc2c34)cc1 [Compound 253, N-(4-chlorobenzyl)-6-(4-methoxybenzyl)-6,7,8,9-tetrahydro-2H-1,2,3,5,6-pentaazabenzo[cd]azulen-4-amine]	< 50	< 50	< 50	50 to 79	< 50	< 50
	COc1ccc(CN2CCCc3n[nH]c4nc(N5CCN(Cc6ccccc6)CC5)nc2c34)cc1 [Compound 254, 4-(4-benzylpiperazin-1-yl)-6-(4-methoxybenzyl)-6,7,8,9-tetrahydro-2H-1,2,3,5,6-pentaazabenzo[cd]azulene]	> 79	> 79	> 79	> 79	> 79	> 79
